Measurements taken from patent US11130756B2, “[1,2,4]Triazolo[4,3-A]pyridinyl substituted indole compounds” (BRISTOL-MYERS SQUIBB COMPANY, priority 2017, dated 2021).

Tests used:
Assay type in all cases: cell-based
human TLR7 = target: T1, human TLR7 (Homo sapiens, UniProt Q9NYK1); assay: TLR7 inhibition reporter assay (HEK-Blue, SEAP); details: HEK-Blue cells overexpressing human TLR7, gardiquimod 7.5 μM, 22 hour incubation
T1 construct: host or cells: HEK-Blue cells
T1 sequence (Q9NYK1 27-1049): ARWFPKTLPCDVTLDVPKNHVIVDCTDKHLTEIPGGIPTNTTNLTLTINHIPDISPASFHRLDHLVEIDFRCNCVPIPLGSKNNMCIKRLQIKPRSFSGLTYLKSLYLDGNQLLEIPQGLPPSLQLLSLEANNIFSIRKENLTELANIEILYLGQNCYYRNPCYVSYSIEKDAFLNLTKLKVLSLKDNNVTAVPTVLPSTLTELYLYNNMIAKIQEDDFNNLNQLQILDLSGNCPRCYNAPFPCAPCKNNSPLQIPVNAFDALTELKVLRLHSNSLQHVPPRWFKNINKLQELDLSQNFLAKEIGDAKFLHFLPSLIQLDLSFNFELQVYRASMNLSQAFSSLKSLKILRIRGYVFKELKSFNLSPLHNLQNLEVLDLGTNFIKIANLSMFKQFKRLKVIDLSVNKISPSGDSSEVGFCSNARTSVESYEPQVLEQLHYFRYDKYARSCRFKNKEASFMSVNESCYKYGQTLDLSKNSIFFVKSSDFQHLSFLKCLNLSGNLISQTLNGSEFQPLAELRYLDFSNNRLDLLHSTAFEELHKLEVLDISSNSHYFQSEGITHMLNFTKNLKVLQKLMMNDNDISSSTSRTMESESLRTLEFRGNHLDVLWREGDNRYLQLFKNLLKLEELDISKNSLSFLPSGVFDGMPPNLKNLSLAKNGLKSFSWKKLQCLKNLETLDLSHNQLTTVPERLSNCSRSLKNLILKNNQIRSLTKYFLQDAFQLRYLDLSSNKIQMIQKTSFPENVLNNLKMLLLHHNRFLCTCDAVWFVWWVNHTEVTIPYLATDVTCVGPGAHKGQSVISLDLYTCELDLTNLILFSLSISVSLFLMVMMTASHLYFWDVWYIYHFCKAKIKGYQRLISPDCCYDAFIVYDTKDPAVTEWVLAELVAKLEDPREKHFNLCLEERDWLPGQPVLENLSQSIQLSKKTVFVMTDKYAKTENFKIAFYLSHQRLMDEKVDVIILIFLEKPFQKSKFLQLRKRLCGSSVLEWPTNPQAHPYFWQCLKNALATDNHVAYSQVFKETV
Procedure: (§1) TLR7/8/9 Inhibition Reporter Assays
(§2) HEK-Blue™-cells (Invivogen) overexpressing human TLR7, TLR8 or TLR9 receptors were used for screening inhibitors of these receptors using an inducible SEAP (secreted embryonic alkaline phosphatase) reporter gene under the control of the IFN-β minimal promoter fused to five NF-κB and AP-1-binding sites. Briefly, cells are seeded into Greiner 384 well plates (15000 cells per well for TLR7, 20,000 for TLR8 and 25,000 for TLR9) and then treated with test compounds in DMSO to yield a final dose response concentration range of 0.05 nM-50 μM. After a 30 minute compound pre-treatment at room temperature, the cells are then stimulated with a TLR7 ligand (gardiquimod at a final concentration of 7.5 μM), TLR8 ligand (R848 at a final concentration of 15.9 μM) or TLR9 ligand (ODN2006 at a final concentration of 5 nM) to activate NF-κB and AP-1 which induce the production of SEAP. After a 22 hour incubation at 37° C., 5% CO2, SEAP levels are determined with the addition of HEK-Blue™ Detection reagent (Invivogen), a cell culture medium that allows for detection of SEAP, according to manufacturer's specifications. The percent inhibition is determined as the % reduction in the HEK-Blue signal present in wells treated with agonist plus DMSO alone compared to wells treated with a known inhibitor.

human TLR9 = target: T2, human TLR9 (Homo sapiens, UniProt Q9NR96); assay: TLR9 inhibition reporter assay (HEK-Blue, SEAP); details: HEK-Blue cells overexpressing human TLR9, ODN2006 5 nM, 22 hour incubation
T2 construct: host or cells: HEK-Blue cells
T2 sequence (Q9NR96 26-1032): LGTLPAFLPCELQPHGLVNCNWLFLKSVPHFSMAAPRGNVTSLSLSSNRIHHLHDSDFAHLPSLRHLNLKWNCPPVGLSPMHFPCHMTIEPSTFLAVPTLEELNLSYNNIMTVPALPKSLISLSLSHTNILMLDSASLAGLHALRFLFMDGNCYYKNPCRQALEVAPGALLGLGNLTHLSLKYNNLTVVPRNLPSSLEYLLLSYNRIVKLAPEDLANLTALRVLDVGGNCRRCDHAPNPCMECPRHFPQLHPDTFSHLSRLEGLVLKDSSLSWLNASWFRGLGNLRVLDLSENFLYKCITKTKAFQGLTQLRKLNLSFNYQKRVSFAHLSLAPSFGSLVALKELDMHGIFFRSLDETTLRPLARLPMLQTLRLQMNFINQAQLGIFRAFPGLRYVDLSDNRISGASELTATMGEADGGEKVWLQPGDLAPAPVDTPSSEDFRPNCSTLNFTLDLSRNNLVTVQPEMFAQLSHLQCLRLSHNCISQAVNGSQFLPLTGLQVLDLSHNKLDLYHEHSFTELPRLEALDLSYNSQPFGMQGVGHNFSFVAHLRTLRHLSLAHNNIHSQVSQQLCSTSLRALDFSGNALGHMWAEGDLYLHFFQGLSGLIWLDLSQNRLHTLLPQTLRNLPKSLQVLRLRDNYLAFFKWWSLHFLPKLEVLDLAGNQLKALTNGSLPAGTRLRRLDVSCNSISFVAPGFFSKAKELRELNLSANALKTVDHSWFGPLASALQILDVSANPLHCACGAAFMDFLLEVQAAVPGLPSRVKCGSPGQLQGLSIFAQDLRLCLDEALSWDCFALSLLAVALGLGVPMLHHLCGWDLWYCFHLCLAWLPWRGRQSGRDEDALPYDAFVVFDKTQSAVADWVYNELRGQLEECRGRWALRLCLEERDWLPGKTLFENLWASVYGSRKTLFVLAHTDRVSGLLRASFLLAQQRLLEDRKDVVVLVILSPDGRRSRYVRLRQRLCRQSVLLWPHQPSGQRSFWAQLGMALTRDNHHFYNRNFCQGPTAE
Procedure: as §1, §2

human TLR8 = target: T3, human TLR8 (Homo sapiens, UniProt Q9NR97); assay: TLR8 inhibition reporter assay (HEK-Blue, SEAP); details: HEK-Blue cells overexpressing human TLR8, R848 15.9 μM, 22 hour incubation
T3 construct: host or cells: HEK-Blue cells
T3 sequence (Q9NR97 27-1041): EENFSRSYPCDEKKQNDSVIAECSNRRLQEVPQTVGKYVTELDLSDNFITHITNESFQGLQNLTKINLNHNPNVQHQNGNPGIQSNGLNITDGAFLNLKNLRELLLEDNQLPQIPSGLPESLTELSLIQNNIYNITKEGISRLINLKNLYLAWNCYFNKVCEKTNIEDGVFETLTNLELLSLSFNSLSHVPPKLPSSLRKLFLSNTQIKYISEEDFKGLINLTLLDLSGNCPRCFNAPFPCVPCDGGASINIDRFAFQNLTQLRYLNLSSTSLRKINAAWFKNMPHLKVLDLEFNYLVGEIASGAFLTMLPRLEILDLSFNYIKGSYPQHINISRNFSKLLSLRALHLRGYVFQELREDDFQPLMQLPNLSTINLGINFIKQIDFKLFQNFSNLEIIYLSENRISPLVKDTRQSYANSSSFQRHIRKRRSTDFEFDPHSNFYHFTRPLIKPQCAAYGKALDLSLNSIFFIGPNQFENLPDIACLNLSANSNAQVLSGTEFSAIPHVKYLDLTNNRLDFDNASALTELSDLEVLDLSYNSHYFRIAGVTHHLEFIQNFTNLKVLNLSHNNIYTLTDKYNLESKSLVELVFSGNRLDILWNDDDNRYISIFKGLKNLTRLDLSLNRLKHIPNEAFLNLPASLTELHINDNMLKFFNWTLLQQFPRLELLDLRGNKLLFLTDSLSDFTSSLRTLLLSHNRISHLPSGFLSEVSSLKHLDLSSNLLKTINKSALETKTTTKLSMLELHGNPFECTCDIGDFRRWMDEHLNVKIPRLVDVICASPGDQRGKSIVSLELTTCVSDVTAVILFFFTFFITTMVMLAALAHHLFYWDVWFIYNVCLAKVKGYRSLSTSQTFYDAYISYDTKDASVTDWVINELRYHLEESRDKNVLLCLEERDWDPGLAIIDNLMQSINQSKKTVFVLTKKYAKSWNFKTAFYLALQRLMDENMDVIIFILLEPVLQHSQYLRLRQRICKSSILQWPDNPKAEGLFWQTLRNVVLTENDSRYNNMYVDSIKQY
Procedure: as §1, §2

| Compound | IC50 (human TLR7) | IC50 (human TLR9) | IC50 (human TLR8) |
| --- | --- | --- | --- |
| 1-(4-(3-isopropyl-2-(8-methoxy-5-methyl-[1,2,4]triazolo[4,3-a)pyridin-6-yl)-1H-indol-5-yl)piperidin-1-yl)-2-methylpropan-2-ol [Example 62] | 1.2 nM | 381 nM | 6.4 nM |
| Cc1c(-c2[nH]c3ccc(C4CCN(C5CCOC5)CC4)cc3c2C(C)C)cn2cnnc2c1C (single isomer, unassigned) [Example 102, 6-(3-isopropyl-5-(1-(tetrahydrofuran-3-yl)piperidin-4-yl)-1H-indol-2-yl)-7,8-dimethyl-[1,2,4]triazolo[4,3-a]pyridine] | 3.9 nM | 5460 nM | 8.2 nM |
| Cc1c(-c2[nH]c3ccc(C4CCN(C5CCOC5)CC4)cc3c2C(C)C)cn2cnnc2c1C (single isomer, unassigned) [Example 103, 6-(3-isopropyl-5-(1-(tetrahydrofuran-3-yl)piperidin-4-yl)-1H-indol-2-yl)-7,8-dimethyl-[1,2,4]triazolo[4,3-a]pyridine] | 5.1 nM | 10200 nM | 11.7 nM |
| Cc1c(-c2[nH]c3ccc(C4CC(C)N(CCS(C)(=O)=O)C(C)C4)cc3c2C(C)C)cn2cnnc2c1C (single isomer, unassigned) [Example 110, 6-(5-(2,6-dimethyl-1-(2-(methylsulfonyl)ethyl)piperidin-4-yl)-3-isopropyl-1H-indol-2-yl)-7,8-dimethyl-[1,2,4]triazolo[4,3-a]pyridine] | 6.3 nM | 6630 nM | 19.4 nM |
| Cc1c(-c2[nH]c3ccc(C4CC(C)N(CCS(C)(=O)=O)C(C)C4)cc3c2C(C)C)cn2cnnc2c1C (single isomer, unassigned) [Example 111, 6-(5-(2,6-dimethyl-1-(2-(methylsulfonyl)ethyl)piperidin-4-yl)-3-isopropyl-1H-indol-2-yl)-7,8-dimethyl-[1,2,4]triazolo[4,3-a]pyridine] | 23.9 nM | 19200 nM | 113 nM |
| Cc1c(-c2[nH]c3ccc(C4CC(C)N(CC5(C)COC5)C(C)C4)cc3c2C(C)C)cn2cnnc2c1C (single isomer, unassigned) [Example 113, 6-(5-(2,6-dimethyl-1-((3-methyloxetan-3-yl)methyl)piperidin-4-yl)-3-isopropyl-1H-indol-2-yl)-7,8-dimethyl-[1,2,4]triazolo[4,3-a]pyridine] | 2.4 nM | 4830 nM | 59.6 nM |
| Cc1c(-c2[nH]c3ccc(C4CC(C)N(CC5(C)COC5)C(C)C4)cc3c2C(C)C)cn2cnnc2c1C (single isomer, unassigned) [Example 114, 6-(5-(2,6-dimethyl-1-((3-methyloxetan-3-yl)methyl)piperidin-4-yl)-3-isopropyl-1H-indol-2-yl)-7,8-dimethyl-[1,2,4]triazolo[4,3-a]pyridine] | 13.7 nM | 7320 nM | 226 nM |
| Cc1c(-c2[nH]c3ccc(C4C[C@H]5CC[C@@H](C4)N5)cc3c2C(C)C)cn2cnnc2c1C (single isomer, unassigned) [Example 116, 6-(5-(8-azabicyclo[3.2.1]octan-3-yl)-3-isopropyl-1H-indol-2-yl)-7,8-dimethyl-[1,2,4]triazolo[4,3-a]pyridine] | 9.9 nM | 1110 nM | 102 nM |
| Cc1c(-c2[nH]c3ccc(C4C[C@H]5CC[C@@H](C4)N5)cc3c2C(C)C)cn2cnnc2c1C (single isomer, unassigned) [Example 117, 6-(5-(8-azabicyclo[3.2.1]octan-3-yl)-3-isopropyl-1H-indol-2-yl)-7,8-dimethyl-[1,2,4]triazolo[4,3-a]pyridine] | 31.6 nM | 6090 nM | 494 nM |
| Cc1c(-c2[nH]c3ccc(C4C[C@H]5CC[C@@H](C4)N5CC(=O)N(C)C)cc3c2C(C)C)cn2cnnc2c1C (single isomer, unassigned) [Example 118] | 8.7 nM | 5460 nM | 159 nM |
